# Test results: paper PMC5413024, “Mechanistic insights into the more potent effect of KP-54 compared to KP-10 in vivo” (PLoS ONE, 2017)
# Tests used:
# c-FOS in GnRH neurons = test: Study 3: c-FOS activation in GnRH neurons after peripheral kisspeptin (dual-label immunohistochemistry, BSA-FITC to define the BBB); format: in vivo, mouse; details: male mice
# Protocol: Induction of expression of the immediate early gene c-Fos is regarded as a marker of neuronal activation. KISS1R activation results in c-FOS induction, which allows identification of the GnRH neurons that are activated by KP. We examined co-localization of c-FOS protein in GnRH neurons by immunohistochemistry 2h after peripheral injection of either KP-10 or KP-54. […] 1 nmol KP-54 was injected first, followed by injection of 100 μl of a 50mg/ml solution of BSA-FITC into the tail vein. The mice were perfused with 4% paraformaldehyde/PBS 2 hrs after KP-54 injection and the brains processed for c-FOS, GnRH and BSA-FITC detection. A negative control for fluorescence was also performed with unconjugated BSA.
# Free-floating, dual-label chromogen immunohistochemistry was undertaken as described previously. Mice were perfused with 4% paraformaldehyde in PBS and the brains removed and post-fixed for 1h in the same fixative. The brains were cut as 40 μm free-floating coronal sections using a vibratome (VT1000S; Leica). […]
# Sections were examined using an Axioscope 2 plus microscope (Carl Zeiss) using bright-field or fluorescence microscopy. […] Where appropriate, BSA-FITC was detected by epifluorescence microscopy at an excitation wavelength of 490 nm and an emission wavelength of 525 nm (green). About fifteen successive sections containing GnRH neurons were counted per animal (n = 6 per treatment). […]
# [1] = from the product data sheets; ref product data sheets (manufacturer); cited from earlier work
# Protocol: KP-10 [human Metastin (45–54) amide, M-2816] was purchased from Sigma-Aldrich. KP-10 consists of the C-terminal 10-amino acids of KP-54. Human KP-54 was synthesized by the Advanced Biotechnology Centre, Imperial College, London, UK. BSA-FITC was purchased from Sigma (A9771). From the product data sheets, the solubility of KP-10 and KP-54 in water is 1mg/ml. We prepared stock solutions in sterile PBS at 100 μM, which is almost ten times lower than the solubility limit set by the manufacturer. The 100 μM stock solution was diluted in sterile PBS and 100 μl of the working solution was injected to ...
smiles,measurement,setting,value
CC[C@H](C)[C@H](NC(=O)[C@H](CCC(N)=O)NC(=O)[C@H](CCCNC(=N)N)NC(=O)[C@H](CO)NC(=O)[C@H](Cc1c[nH]cn1)NC(=O)[C@@H]1CCCN1C(=O)[C@H](C)NC(=O)[C@H](CO)NC(=O)[C@H](CC(C)C)NC(=O)CNC(=O)[C@@H]1CCCN1C(=O)[C@H](CCC(N)=O)NC(=O)[C@H](CCC(N)=O)NC(=O)[C@H](CCCNC(=N)N)NC(=O)[C@H](CO)NC(=O)CNC(=O)[C@H](CO)NC(=O)[C@H](CO)NC(=O)[C@H](CCC(=O)O)NC(=O)[C@@H]1CCCN1C(=O)[C@@H]1CCCN1C(=O)[C@@H]1CCCN1C(=O)[C@H](CO)NC(=O)[C@H](CC(C)C)NC(=O)[C@H](CO)NC(=O)[C@@H](NC(=O)CN)[C@@H](C)O)C(=O)N1CCC[C@H]1C(=O)N[C@@H](C)C(=O)N1CCC[C@H]1C(=O)N[C@@H](CCC(N)=O)C(=O)NCC(=O)N[C@@H](C)C(=O)N[C@H](C(=O)N[C@@H](CC(C)C)C(=O)N[C@H](C(=O)N[C@@H](CCC(N)=O)C(=O)N[C@@H](CCCNC(=N)N)C(=O)N[C@@H](CCC(=O)O)C(=O)N[C@@H](CCCCN)C(=O)N[C@@H](CC(=O)O)C(=O)N[C@@H](CC(C)C)C(=O)N1CCC[C@H]1C(=O)N[C@@H](CC(N)=O)C(=O)N[C@@H](Cc1ccc(O)cc1)C(=O)N[C@@H](CC(N)=O)C(=O)N[C@@H](Cc1c[nH]c2ccccc12)C(=O)N[C@@H](CC(N)=O)C(=O)N[C@@H](CO)C(=O)N[C@@H](Cc1ccccc1)C(=O)NCC(=O)N[C@@H](CC(C)C)C(=O)N[C@@H](CCCNC(=N)N)C(=O)N[C@@H](Cc1ccccc1)C(N)=O)C(C)C)C(C)C [KP-54],c-FOS activation of GnRH neurons behind the blood brain barrier (functional surrogate for BBB crossing),"c-FOS in GnRH neurons; 1 nmol KP-54 plus i.v. BSA-FITC (does not cross the BBB), 2 h, n = 3",c-FOS-positive GnRH neurons in hypothalamic areas that were negative for BSA-FITC
same,percentage of GnRH neurons positive for c-FOS (all regions),"c-FOS in GnRH neurons; 2 h after peripheral injection of 1 nmol, n = 6, vehicle 0.54 ± 0.15%",22.07 ± 2.96%
same,solubility in water,[1],1000 µg/mL
